Data published in ChEMBL document CHEMBL5050828, “Inhibitors of DUX4 induction for regulation of muscle function” (2021).
Active and inactive are the calls of the source. The rule behind the calls is not given here.

Experiments:
[1] = Downregulation of DUX4 expression in facioscapulohumeral muscular dystrophy (FSHD) affected human embryonic stem cell (hESC)-derived skeletal myoblasts and measured by immunocytochemistry analysis; type: functional, cell-based; conditions: Myoblast
[2] = test system: Myoblast; test: Downregulation of DUX4 expression in facioscapulohumeral muscular dystrophy (FSHD) affected human embryonic stem cell (hESC)-derived skeletal myoblasts at 100 nM and measured by immunocytochemistry analysis relative to control; type: functional, cell-based
[3] = test system: Myoblast; test: Effect on myosin heavy chain expression in facioscapulohumeral muscular dystrophy (FSHD) affected human embryonic stem cell (hESC)-derived skeletal myoblasts at 100 nM and measured by immunocytochemistry analysis relative to control; type: functional, cell-based
[4] = test system: Myoblast; test: Effect on nuclei count in facioscapulohumeral muscular dystrophy (FSHD) affected human embryonic stem cell (hESC)-derived skeletal myoblasts at 100 nM and measured by immunocytochemistry analysis relative to control; type: functional, cell-based
[5] = test system: Myoblast; test: Downregulation of DUX4 expression in facioscapulohumeral muscular dystrophy (FSHD) affected human embryonic stem cell (hESC)-derived skeletal myoblasts at 0.01 to 3 uM and measured by immunocytochemistry analysis relative to control; type: functional, cell-based; conditions: dose 0.01-3 µM
[6] = test system: Myoblast; test: Effect on myosin heavy chain expression in facioscapulohumeral muscular dystrophy (FSHD) affected human embryonic stem cell (hESC)-derived skeletal myoblasts at 0.01 to 3 uM and measured by immunocytochemistry analysis relative to control; type: functional, cell-based; conditions: dose 0.01-3 µM
[7] = Downregulation of DUX4 expression in facioscapulohumeral muscular dystrophy (FSHD) primary pateint derived myoblasts and measured by immunocytochemistry analysis; type: functional, cell-based; conditions: Homo sapiens, Myoblast
[8] = test system: Myoblast; test: Rescue of apoptosis in facioscapulohumeral muscular dystrophy (FSHD) primary pateint derived myoblasts at 0.01 to 3 uM assessed as decrease in caspase 3/7 activation and measured by live cell imaging method; type: functional, cell-based; conditions: Homo sapiens, dose 0.01-3 µM
[9] = test system: Myoblast; test: Rescue of cell death in facioscapulohumeral muscular dystrophy (FSHD) primary pateint derived myoblasts at 0.01 to 3 uM and measured by live cell imaging method; type: functional, cell-based; conditions: Homo sapiens, dose 0.01-3 µM
[10] = test system: Myoblast; test: Effect on DUX4-target gene expression in facioscapulohumeral muscular dystrophy (FSHD) primary pateint derived myoblasts at 0.03 to 3 microM assessed as decrease in CCNA1 expression; type: functional, cell-based; conditions: Homo sapiens, dose 0.03-3 µM
[11] = test system: Myoblast; test: Effect on DUX4-target gene expression in facioscapulohumeral muscular dystrophy (FSHD) primary pateint derived myoblasts at 0.03 to 3 microM assessed as decrease in KHDC1L expression; type: functional, cell-based; conditions: Homo sapiens, dose 0.03-3 µM
[12] = test system: Myoblast; test: Effect on DUX4-target gene expression in facioscapulohumeral muscular dystrophy (FSHD) primary pateint derived myoblasts at 0.03 to 3 microM assessed as decrease in LEUTX expression; type: functional, cell-based; conditions: Homo sapiens, dose 0.03-3 µM
[13] = test system: Myoblast; test: Effect on DUX4-target gene expression in facioscapulohumeral muscular dystrophy (FSHD) primary pateint derived myoblasts at 0.03 to 3 microM assessed as decrease in MBD3L2 expression; type: functional, cell-based; conditions: Homo sapiens, dose 0.03-3 µM
[14] = test system: Myoblast; test: Effect on DUX4-target gene expression in facioscapulohumeral muscular dystrophy (FSHD) primary pateint derived myoblasts at 0.03 to 3 microM assessed as decrease in PRAMEF2 expression; type: functional, cell-based; conditions: Homo sapiens, dose 0.03-3 µM
[15] = test system: Myoblast; test: Effect on DUX4-target gene expression in facioscapulohumeral muscular dystrophy (FSHD) primary pateint derived myoblasts at 0.03 to 3 microM assessed as decrease in PRAMEF6 expression; type: functional, cell-based; conditions: Homo sapiens, dose 0.03-3 µM
[16] = test system: Myoblast; test: Effect on DUX4-target gene expression in facioscapulohumeral muscular dystrophy (FSHD) primary pateint derived myoblasts at 0.03 to 3 microM assessed as decrease in SPRYD5 expression; type: functional, cell-based; conditions: Homo sapiens, dose 0.03-3 µM
[17] = test system: Myoblast; test: Effect on DUX4-target gene expression in facioscapulohumeral muscular dystrophy (FSHD) primary pateint derived myoblasts at 0.03 to 3 microM assessed as decrease in TRIM43 expression; type: functional, cell-based; conditions: Homo sapiens, dose 0.03-3 µM
[18] = test system: Myoblast; test: Effect on DUX4-target gene expression in facioscapulohumeral muscular dystrophy (FSHD) primary pateint derived myoblasts at 0.03 to 3 microM assessed as decrease in TRIM49 expression; type: functional, cell-based; conditions: Homo sapiens, dose 0.03-3 µM
[19] = test system: Myoblast; test: Effect on DUX4-target gene expression in facioscapulohumeral muscular dystrophy (FSHD) primary pateint derived myoblasts at 0.03 to 3 microM assessed as decrease in ZNF296 expression; type: functional, cell-based; conditions: Homo sapiens, dose 0.03-3 µM
[20] = test system: Myoblast; test: Effect on DUX4-target gene expression in facioscapulohumeral muscular dystrophy (FSHD) primary pateint derived myoblasts at 0.03 to 3 microM assessed as decrease in ZSCAN4 expression; type: functional, cell-based; conditions: Homo sapiens, dose 0.03-3 µM
[21] = test system: Myoblast; test: Effect on myotube gene expression in facioscapulohumeral muscular dystrophy (FSHD) primary pateint derived myoblasts at 0.03 to 3 microM assessed as decrease in CKM expression; type: functional, cell-based; conditions: Homo sapiens, dose 0.03-3 µM
[22] = test system: Myoblast; test: Effect on myotube gene expression in facioscapulohumeral muscular dystrophy (FSHD) primary pateint derived myoblasts at 0.03 to 3 microM assessed as decrease in DES expression; type: functional, cell-based; conditions: Homo sapiens, dose 0.03-3 µM
[23] = test system: Myoblast; test: Effect on myotube gene expression in facioscapulohumeral muscular dystrophy (FSHD) primary pateint derived myoblasts at 0.03 to 3 microM assessed as decrease in DMD expression; type: functional, cell-based; conditions: Homo sapiens, dose 0.03-3 µM
[24] = test system: Myoblast; test: Effect on myotube gene expression in facioscapulohumeral muscular dystrophy (FSHD) primary pateint derived myoblasts at 0.03 to 3 microM assessed as decrease in MYH3 expression; type: functional, cell-based; conditions: Homo sapiens, dose 0.03-3 µM
[25] = test system: Myoblast; test: Effect on myotube gene expression in facioscapulohumeral muscular dystrophy (FSHD) primary pateint derived myoblasts at 0.03 to 3 microM assessed as decrease in MYH8 expression; type: functional, cell-based; conditions: Homo sapiens, dose 0.03-3 µM
[26] = test system: Myoblast; test: Effect on myotube gene expression in facioscapulohumeral muscular dystrophy (FSHD) primary pateint derived myoblasts at 0.03 to 3 microM assessed as decrease in MYOG expression; type: functional, cell-based; conditions: Homo sapiens, dose 0.03-3 µM
[27] = Half-life in male CD-1 mouse at 10 mg/kg, IM measured by LC-MS/MS analysis; type: ADME, organism-based; conditions: in vivo
[28] = Half-life in male CD-1 mouse at 50 mg/kg, IM measured by LC-MS/MS analysis; type: ADME, organism-based; conditions: in vivo
[29] = Brain concentration in male CD-1 mouse at 10 mg/kg, IM administered as single dose and measured by LC-MS/MS analysis; type: ADME, organism-based; conditions: in vivo, BLD = below limit of detection
[30] = test system: Myoblast; test: Effect on DNA methylation levels at 4qA regions of chromosome 4 in myotubes of facioscapulohumeral muscular dystrophy (FSHD) affected human embryonic stem cell (hESC)-derived skeletal myoblasts at 0.01 to 1 uM; type: functional, cell-based; conditions: dose 0.01-1 µM
[31] = test system: Myoblast; test: Effect on DNA methylation levels at D4Z4 regions of chromosome 4 in myotubes of facioscapulohumeral muscular dystrophy (FSHD) affected human embryonic stem cell (hESC)-derived skeletal myoblasts at 0.01 to 1 uM; type: functional, cell-based; conditions: dose 0.01-1 µM
[32] = test system: Myoblast; test: Effect on PRKDC expression in facioscapulohumeral muscular dystrophy (FSHD) primary pateint derived myoblasts at 0.01 to 1 uM and measured by RT-PCR analysis; type: functional, cell-based; conditions: Homo sapiens, dose 0.01-1 µM
[33] = test system: Myoblast; test: Effect on SRC expression in facioscapulohumeral muscular dystrophy (FSHD) primary pateint derived myoblasts at 0.01 to 1 uM and measured by RT-PCR analysis; type: functional, cell-based; conditions: Homo sapiens, dose 0.01-1 µM
[34] = biological target: DNA-dependent protein kinase catalytic subunit (Homo sapiens) (UniProt P78527); test: Inhibition of PRKDC in facioscapulohumeral muscular dystrophy (FSHD) primary pateint derived myoblasts at 0.01 to 1 uM and measured by immunofluorescence method; type: cell-based; conditions: Myoblast, dose 0.01-1 µM
DNA-dependent protein kinase catalytic subunit (Homo sapiens), sequence (P78527 whole entry): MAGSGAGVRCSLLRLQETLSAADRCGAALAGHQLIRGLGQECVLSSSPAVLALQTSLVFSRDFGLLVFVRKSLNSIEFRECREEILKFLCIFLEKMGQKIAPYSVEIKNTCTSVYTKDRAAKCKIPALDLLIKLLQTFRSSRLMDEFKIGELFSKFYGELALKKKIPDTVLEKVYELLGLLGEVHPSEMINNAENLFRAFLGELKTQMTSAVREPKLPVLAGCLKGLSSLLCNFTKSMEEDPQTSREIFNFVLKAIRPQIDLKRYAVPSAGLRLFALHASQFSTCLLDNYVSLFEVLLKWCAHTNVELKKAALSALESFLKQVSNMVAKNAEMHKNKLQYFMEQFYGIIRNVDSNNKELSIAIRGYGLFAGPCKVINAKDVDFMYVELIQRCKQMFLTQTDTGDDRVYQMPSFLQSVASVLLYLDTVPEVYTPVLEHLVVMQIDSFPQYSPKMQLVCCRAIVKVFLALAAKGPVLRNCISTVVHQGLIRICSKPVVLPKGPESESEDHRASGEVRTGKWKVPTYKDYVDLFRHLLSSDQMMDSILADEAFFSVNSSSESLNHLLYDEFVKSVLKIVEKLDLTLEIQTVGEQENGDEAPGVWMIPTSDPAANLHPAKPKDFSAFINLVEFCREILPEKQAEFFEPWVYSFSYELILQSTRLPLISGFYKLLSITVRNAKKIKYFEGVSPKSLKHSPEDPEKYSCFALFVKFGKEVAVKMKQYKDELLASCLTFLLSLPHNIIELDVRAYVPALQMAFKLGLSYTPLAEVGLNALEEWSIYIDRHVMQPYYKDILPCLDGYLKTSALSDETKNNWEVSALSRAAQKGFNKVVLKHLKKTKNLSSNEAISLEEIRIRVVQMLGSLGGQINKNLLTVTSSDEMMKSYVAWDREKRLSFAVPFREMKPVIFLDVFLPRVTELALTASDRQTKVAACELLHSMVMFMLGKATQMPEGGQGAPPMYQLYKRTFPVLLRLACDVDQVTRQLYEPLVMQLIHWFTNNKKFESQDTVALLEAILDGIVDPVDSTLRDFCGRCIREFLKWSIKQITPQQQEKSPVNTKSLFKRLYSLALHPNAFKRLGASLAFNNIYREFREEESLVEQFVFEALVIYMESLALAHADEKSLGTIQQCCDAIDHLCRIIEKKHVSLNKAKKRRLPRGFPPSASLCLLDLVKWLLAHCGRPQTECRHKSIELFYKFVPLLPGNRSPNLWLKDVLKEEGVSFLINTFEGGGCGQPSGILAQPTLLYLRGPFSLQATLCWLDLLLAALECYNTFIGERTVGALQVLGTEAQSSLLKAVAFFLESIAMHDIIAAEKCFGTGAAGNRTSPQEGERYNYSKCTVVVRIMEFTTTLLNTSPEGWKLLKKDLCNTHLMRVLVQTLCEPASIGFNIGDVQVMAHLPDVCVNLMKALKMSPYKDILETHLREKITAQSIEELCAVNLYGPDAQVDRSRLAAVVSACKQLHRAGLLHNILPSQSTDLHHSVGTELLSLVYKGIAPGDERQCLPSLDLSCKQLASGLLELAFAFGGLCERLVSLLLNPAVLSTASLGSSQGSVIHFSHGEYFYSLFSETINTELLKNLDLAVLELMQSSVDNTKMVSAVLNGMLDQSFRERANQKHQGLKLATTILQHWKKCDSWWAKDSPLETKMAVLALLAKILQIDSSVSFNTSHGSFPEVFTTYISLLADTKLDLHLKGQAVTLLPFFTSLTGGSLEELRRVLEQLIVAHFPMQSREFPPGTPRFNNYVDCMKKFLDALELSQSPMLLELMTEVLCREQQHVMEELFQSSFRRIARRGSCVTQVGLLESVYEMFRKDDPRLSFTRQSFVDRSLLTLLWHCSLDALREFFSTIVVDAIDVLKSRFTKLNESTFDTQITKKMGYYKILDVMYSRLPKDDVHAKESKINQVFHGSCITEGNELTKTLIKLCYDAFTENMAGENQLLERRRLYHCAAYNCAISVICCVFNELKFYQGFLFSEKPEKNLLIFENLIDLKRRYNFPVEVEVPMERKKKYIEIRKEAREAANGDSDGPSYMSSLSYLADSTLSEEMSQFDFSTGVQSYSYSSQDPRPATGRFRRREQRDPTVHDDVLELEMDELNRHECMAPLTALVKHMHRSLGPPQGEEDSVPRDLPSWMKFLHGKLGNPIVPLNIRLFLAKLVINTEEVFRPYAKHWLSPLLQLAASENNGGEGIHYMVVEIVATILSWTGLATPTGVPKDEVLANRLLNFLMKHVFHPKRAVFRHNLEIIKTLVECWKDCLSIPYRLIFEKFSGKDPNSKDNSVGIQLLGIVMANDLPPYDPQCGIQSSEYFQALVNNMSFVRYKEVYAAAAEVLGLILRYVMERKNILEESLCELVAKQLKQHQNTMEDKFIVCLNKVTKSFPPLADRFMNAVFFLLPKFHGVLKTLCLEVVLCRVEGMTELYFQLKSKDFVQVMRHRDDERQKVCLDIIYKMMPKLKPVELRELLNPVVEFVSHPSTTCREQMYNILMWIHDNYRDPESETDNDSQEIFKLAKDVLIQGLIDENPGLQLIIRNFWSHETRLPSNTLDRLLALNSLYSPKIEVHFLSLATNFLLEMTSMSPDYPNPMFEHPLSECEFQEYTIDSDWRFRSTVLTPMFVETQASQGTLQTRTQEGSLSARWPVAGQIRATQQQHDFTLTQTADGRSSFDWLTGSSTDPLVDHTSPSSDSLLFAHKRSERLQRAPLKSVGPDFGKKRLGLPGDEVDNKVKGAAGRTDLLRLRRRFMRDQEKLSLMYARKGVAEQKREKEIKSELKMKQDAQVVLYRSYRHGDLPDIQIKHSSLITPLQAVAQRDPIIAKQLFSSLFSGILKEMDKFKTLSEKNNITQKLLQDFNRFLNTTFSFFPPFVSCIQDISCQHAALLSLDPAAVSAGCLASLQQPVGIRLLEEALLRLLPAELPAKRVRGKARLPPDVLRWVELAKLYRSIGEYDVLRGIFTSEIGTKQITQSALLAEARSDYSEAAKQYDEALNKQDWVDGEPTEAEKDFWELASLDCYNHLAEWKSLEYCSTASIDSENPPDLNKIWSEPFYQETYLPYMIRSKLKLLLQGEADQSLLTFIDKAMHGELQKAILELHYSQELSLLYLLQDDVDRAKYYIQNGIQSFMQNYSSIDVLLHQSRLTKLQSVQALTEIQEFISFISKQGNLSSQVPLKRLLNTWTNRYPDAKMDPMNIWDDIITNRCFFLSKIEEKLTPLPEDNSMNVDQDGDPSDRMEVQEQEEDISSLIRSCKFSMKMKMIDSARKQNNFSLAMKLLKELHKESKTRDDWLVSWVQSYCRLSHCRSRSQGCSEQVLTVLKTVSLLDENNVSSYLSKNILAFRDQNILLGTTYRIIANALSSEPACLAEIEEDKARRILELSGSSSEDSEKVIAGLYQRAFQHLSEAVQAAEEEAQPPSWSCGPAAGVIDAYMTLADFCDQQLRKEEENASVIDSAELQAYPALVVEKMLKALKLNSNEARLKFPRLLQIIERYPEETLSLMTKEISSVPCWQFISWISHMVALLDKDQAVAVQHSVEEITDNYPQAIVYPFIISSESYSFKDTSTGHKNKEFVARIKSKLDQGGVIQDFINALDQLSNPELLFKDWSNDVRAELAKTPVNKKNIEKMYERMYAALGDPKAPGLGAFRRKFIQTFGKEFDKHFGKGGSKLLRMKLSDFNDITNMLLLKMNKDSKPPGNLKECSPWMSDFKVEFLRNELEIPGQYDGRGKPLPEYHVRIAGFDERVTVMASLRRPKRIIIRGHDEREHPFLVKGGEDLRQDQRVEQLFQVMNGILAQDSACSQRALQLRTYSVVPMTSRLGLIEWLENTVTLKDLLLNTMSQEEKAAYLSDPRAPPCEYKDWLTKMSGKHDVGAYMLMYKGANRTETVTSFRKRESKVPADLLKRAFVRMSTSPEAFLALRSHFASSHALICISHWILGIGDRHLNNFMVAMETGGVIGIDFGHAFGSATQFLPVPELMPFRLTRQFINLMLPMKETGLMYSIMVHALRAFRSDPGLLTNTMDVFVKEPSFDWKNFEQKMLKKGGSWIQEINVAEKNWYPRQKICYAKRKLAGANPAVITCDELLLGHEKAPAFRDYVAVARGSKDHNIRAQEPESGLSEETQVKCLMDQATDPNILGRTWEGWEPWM

[35] = biological target: Proto-oncogene tyrosine-protein kinase Src (Homo sapiens) (UniProt P12931); test: Inhibition of SRC in facioscapulohumeral muscular dystrophy (FSHD) primary pateint derived myoblasts at 0.01 to 1 uM and measured by immunofluorescence method; type: cell-based; conditions: Myoblast, dose 0.01-1 µM
Proto-oncogene tyrosine-protein kinase Src (Homo sapiens), sequence (P12931 2-536 limits assumed): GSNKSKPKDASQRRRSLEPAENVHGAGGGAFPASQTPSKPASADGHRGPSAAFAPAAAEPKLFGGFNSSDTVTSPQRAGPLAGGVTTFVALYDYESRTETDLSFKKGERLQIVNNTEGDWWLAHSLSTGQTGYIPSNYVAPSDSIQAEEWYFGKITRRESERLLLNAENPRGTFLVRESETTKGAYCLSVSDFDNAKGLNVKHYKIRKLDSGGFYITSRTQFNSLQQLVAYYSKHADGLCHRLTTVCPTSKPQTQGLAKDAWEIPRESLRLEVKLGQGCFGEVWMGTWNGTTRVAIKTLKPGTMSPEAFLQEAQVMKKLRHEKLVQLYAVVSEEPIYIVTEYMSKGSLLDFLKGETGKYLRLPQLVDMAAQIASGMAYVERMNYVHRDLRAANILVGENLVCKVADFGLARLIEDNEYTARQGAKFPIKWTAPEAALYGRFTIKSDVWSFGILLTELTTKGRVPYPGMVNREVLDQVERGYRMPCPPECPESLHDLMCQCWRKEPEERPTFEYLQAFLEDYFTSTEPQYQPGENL

With `CNC(=O)c1cc(Oc2ccc(NC(=O)Nc3cc(C(C)(C)C)nn3-c3ccc4ncccc4c3)c(F)c2)ccn1` [REBASTINIB] the EC50 [1] was 37.9 µM, the Activity [2] was “Active” and the Activity [3] was “inactive”. For the same compound, the Activity [4] was “inactive”, the Activity [5] was “Active” and the Activity [6] was “inactive”. The IC50 [7] was 0.1 µM, the Activity [8] was “Active” and the Activity [9] was “Active”. The Activity [10] was “Active”, the Activity [11] was “Active” and the Activity [12] was “Active”. The Activity [13] was “Active”, the Activity [14] was “Active” and the Activity [15] was “Active”. The Activity [16] was “Active”, the Activity [17] was “Active” and the Activity [18] was “Active”. The Activity [19] was “Active”, the Activity [20] was “Active” and the Activity [21] was “inactive”. The Activity [22] was “inactive”, the Activity [23] was “inactive” and the Activity [24] was “inactive”. For the same compound, the Activity [25] was “inactive”, the Activity [26] was “inactive” and the half-life [27] was 5.59 h. The half-life [28] was 8.1 h, the Drug uptake [29] was “Bld” and the Activity [30] was “inactive”. The Activity [31] was “inactive”, the Activity [32] was “inactive” and the Activity [33] was “inactive”. The inhibition [34] was “Active” and the inhibition [35] was “Active”.
